For orientation: IC50 means the concentration that inhibits the measured activity by half.

These results are taken from patent US5917056A (priority 1995, dated 1999).

One series concerns A549 (Human NSCLC). Description: Cytotoxicity on tumour cell lines, A549 (Human NSCLC). The series is classed as cell-based. As to conditions: exposure time 72 h. As for the experimental part: (§1) Standard conditions: basal medium=RPMI 1640+20 mM HEPES+2 mM L-glutamine.
The next series concerns A121 (Human ovarian). Nature of the series: Cytotoxicity on tumour cell lines, A121 (Human ovarian). It is filed as cell-based. To be noted: exposure time 72 h. As for the experimental part:
as §1

In series [1] the test system is tumours. Description: cytotoxic and antitumour activity (statement in words).
The subject of a further series is MCF7 (Human breast). Nature of the series: Cytotoxicity on tumour cell lines, MCF7 (Human breast). To be noted: exposure time 72 h. The series is classed as cell-based. How it is done: as §1
The next series has as its system HT-29 (Human colon). Description: Cytotoxicity on tumour cell lines, HT-29 (Human colon). It is filed as cell-based. To be noted: exposure time 72 h. As for the experimental part:
as §1

Another series relates to L1210 (murine leukemia). Description: Cytotoxicity on tumour cell lines, L1210 (murine leukemia). The series is classed as cell-based. To be noted: Mus musculus, exposure time 72 h. How it is done:
as §1

Series [2] can be described thus: adverse effects / tolerability (statement in words). To be noted: compared with paclitaxel / prior art.
In series [3] the test system is tumours. To be noted: background art, cited from earlier work.
The conditions of series [4]: clinical use, background art; cited from earlier work.
In another series the test system is MCF7-ADR (resistant). Nature of the series: cells. The series is classed as cell-based. To be noted: Homo sapiens, NCI/ADR-RES, 72 h.

SMILES strings stand for the structures.

Turning to `CC(=O)O[C@H]1C(=O)[C@@]2(C)[C@H]([C@H](OC(=O)c3ccccc3)[C@]34OC(=S)O[C@H]3[C@H](OC(=O)[C@H](O)[C@H](CC(C)C)NC(=O)OC(C)(C)C)C(C)=C1C4(C)C)[C@]1(OC(C)=O)CO[C@@H]1C[C@@H]2O` [Compound 5, 13-[(2R,3S)-3-tert-butoxycarbonyl-amino-2-hydroxy-3-isobutyl-propanoyl]-14β-hydroxybaccatine III 1,14-thiocarbonate], the IC50 was 2.3 ± 0.3 nM with A549 (Human NSCLC); 0.8 ± 0.3 nM in the series with A121 (Human ovarian); 1.2 ± 0.2 nM with MCF7 (Human breast); 0.3 ± 0.1 nM in the series with HT-29 (Human colon); 0.5 ± 0.1 nM in the series on L1210 (murine leukemia). Also, the “activity (in words)” value in the series on tumours [1] was “particularly active”.

Take `CCCCCC(=O)N[C@@H](C=C(C)C)[C@@H](O)C(=O)O[C@@H]1C(C)=C2[C@@H](OC(C)=O)C(=O)[C@@]3(C)[C@H]([C@H](OC(=O)c4ccccc4)[C@@]4(OS(=O)O[C@@H]14)C2(C)C)[C@]1(OC(C)=O)CO[C@@H]1C[C@@H]3O` (stereo partly drawn) [Compound 9, 13-[(2R,3S)-3-caproylamino-2-hydroxy-3-isobutenyl-propanoyl]-14β-hydroxybaccatine-III 1,14-sulfite]: the IC50 was determined as 1.8 ± 0.2 nM in the series with A549 (Human NSCLC); 1.1 ± 0.1 nM with A121 (Human ovarian); 1 ± 0.3 nM with MCF7 (Human breast); 0.5 ± 0.1 nM in the series on HT-29 (Human colon); 1.8 ± 0.1 nM in the series with L1210 (murine leukemia). In addition, in series [2], the drawbacks / tolerability entry is “advantages compared with the compounds of the prior art in terms of both activity and tolerability”. Besides, the “activity (in words)” value with tumours [1] is “advantages compared with the compounds of the prior art in terms of both activity and tolerability”.

On to `CCCCCC(=O)N[C@@H](C=C(C)C)[C@@H](O)C(=O)O[C@@H]1C(C)=C2[C@@H](OC(C)=O)C(=O)[C@@]3(C)[C@H]([C@H](OC(=O)c4ccccc4)[C@@]4(OC(=N)O[C@@H]14)C2(C)C)[C@]1(OC(C)=O)CO[C@@H]1C[C@@H]3O` [Compound 8, 13-[(2R,3S)-3-caproylamino-2-hydroxy-3-isobutenyl-propanoyl]-14β-hydroxybaccatine III 1,14-iminocarbonate], for which the IC50 with A549 (Human NSCLC) was 2.1 ± 0.3 nM; with A121 (Human ovarian), 1.9 ± 0.2 nM; in the series with MCF7 (Human breast), 0.8 ± 0.2 nM; in the series on HT-29 (Human colon) it was 0.5 ± 0.1 nM; in the series with L1210 (murine leukemia), 2.4 ± 0.1 nM. Moreover, the drawbacks / tolerability entry in series [2] is “advantages compared with the compounds of the prior art in terms of both activity and tolerability”. The “activity (in words)” value in the series with tumours [1] is “advantages compared with the compounds of the prior art in terms of both activity and tolerability”.

As to `CCCCCC(=O)N[C@@H](C=C(C)C)[C@@H](O)C(=O)O[C@@H]1C(C)=C2[C@@H](OC(C)=O)C(=O)[C@@]3(C)[C@H]([C@H](OC(=O)c4ccccc4)[C@@]4(OC(=S)O[C@@H]14)C2(C)C)[C@]1(OC(C)=O)CO[C@@H]1C[C@@H]3O` [Compound 7, 13-[(2R,3S)-3-caproylamino-2-hydroxy-3-isobutenyl-propanoyl]-14β-hydroxybaccatine III 1,14-thiocarbonate III], the “activity (in words)” value in the series with tumours [1] is given as “particularly active”.

On to `CC(=O)O[C@H]1C(=O)[C@@]2(C)[C@H]([C@H](OC(=O)c3ccccc3)[C@]3(O)C[C@H](OC(=O)[C@H](O)[C@@H](NC(=O)c4ccccc4)c4ccccc4)C(C)=C1C3(C)C)[C@]1(OC(C)=O)CO[C@@H]1C[C@@H]2O` [Paclitaxel, paclitaxel, reference compound], for which the IC50 with A549 (Human NSCLC) is 5.7 ± 0.5 nM; in the series with A121 (Human ovarian) it was 4.7 ± 0.3 nM; in the series with MCF7-ADR (resistant) it was 395 ± 8.7 nM; with MCF7 (Human breast), 4.8 ± 0.1 nM; in the series with HT-29 (Human colon), 6.9 ± 0.4 nM; with L1210 (murine leukemia) it was 7.5 ± 2 nM. In addition, the induction of resistance result in the series on tumours [3] was “induces resistance quickly”. Besides, the anticancerogenic activity entry with tumours [3] (different forms of human tumours) is listed as “anticancerogenic activity on different forms of human tumours”. Moreover, the clinical drawbacks entry in [4] is given as “cardiotoxicity”.

`CC(=O)O[C@H]1C(=O)[C@@]2(C)[C@H]([C@H](OC(=O)c3ccccc3)[C@]34OC(=S)O[C@H]3[C@H](OC(=O)[C@H](O)[C@H](C=C(C)C)NC(=O)OC(C)(C)C)C(C)=C1C4(C)C)[C@]1(OC(C)=O)CO[C@@H]1C[C@@H]2O` [Compound 6, 13-[(2R,3S)-3-tert-butoxycarbonylamino-2-hydroxy-3-isobutenyl-propanoyl]-14β-hydroxybaccatine III 1,14-thiocarbonate]: the “activity (in words)” value in the series on tumours [1] is “particularly active”.
